{"source": "patent US6054490A", "about": "“Use of sesquiterpenes for inhibiting oxidative enzymes” (Zylepsis Limited, priority 1995, dated 2000)", "key": {"[1]": {"settings": "racemic nitrendipine; cited from earlier work"}, "cytochrome P450 3A4 [2]": {"molecular_target": "T1, cytochrome P450 3A4 (Homo sapiens, UniProt P08684)", "T1 construct": "made in house; host or cells: Saccharomyces cerevisiae strain AH22, vector pAAH5 (p3A4); microsomal fractions", "T1 sequence (P08684 whole entry)": "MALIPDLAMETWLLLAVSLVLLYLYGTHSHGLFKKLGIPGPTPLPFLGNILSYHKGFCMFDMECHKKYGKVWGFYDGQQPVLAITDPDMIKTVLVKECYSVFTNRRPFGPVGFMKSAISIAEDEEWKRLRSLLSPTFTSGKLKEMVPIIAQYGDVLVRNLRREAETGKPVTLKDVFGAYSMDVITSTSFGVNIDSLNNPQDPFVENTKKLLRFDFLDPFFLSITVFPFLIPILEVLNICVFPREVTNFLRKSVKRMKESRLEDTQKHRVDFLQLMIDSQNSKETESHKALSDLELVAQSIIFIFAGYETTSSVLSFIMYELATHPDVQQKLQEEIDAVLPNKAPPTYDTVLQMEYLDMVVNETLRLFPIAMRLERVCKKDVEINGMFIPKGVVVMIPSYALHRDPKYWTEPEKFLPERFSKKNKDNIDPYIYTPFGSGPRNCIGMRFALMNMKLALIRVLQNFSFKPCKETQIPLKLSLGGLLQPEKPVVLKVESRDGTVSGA", "experiment": "Inhibition of cyclosporin A metabolism (3 metabolites M1, M6, M21) by yeast-expressed P450 3A4 microsomes", "assay_type": "biochemical", "experimental": "Human cytochrome P450 3A4 was expressed using the vector pAAH5 (p3A4) in Saccharomyces cerevisiae strain AH22 (Guengerich et al., 1991). Plasmid DNA was prepared using Promega's Wizard kit and S. cerevisiae strain AH22 (a his4-519 leu2-3,2-112) was used for transformation. Transformants were grown and maintained at 30° C. on minimal medium containing 2% (w/v) glucose, 0.67% (w/v) Difco yeast nitrogen base without amino acids and 20 μg/ml histidine. Cytochrome P450 content and substrate binding studies were carried out spectrally using a Philips PU8800 US/Vis scanning spectrophotometer according to Omura and Sato (1964) and Jefcoate (1979) respectively. Protein content was determined by the method of Lowry et al. 1956. […] CO was bubbled into the sample cuvette and the difference spectrum was recorded between 390-500 nm. […] Nootkatone was added to the microsomal fractions in the sample cuvette but to the buffer in the reference cuvette and difference spectra recorded between 350-500 nm. […]\nThe ethyl acetate extracts from biotransformation studies were directly spotted on to TLC plates and developed in solvent system heptane/pyridine/ethyl acetate (100/75/1 v/v) in a chromatographic tank lined with a blotting paper the same size as the TLC plate. […] The Rf valves of spots were measured and compared to the literature. […]"}, "CYP3A4": {"system": "CYP3A4", "settings": "cited from earlier work"}, "[3]": {"system": "felodipine first-pass metabolism", "settings": "in vivo; cited from earlier work"}, "cytochrome P450 3A4 [4]": {"molecular_target": "T1, cytochrome P450 3A4", "experiment": "biochemical", "assay_type": "binding", "experimental": "Human cytochrome P450 3A4 was expressed using the vector pAAH5 (p3A4) in Saccharomyces cerevisiae strain AH22 (Guengerich et al., 1991). Plasmid DNA was prepared using Promega's Wizard kit and S. cerevisiae strain AH22 (a his4-519 leu2-3,2-112) was used for transformation. Transformants were grown and maintained at 30° C. on minimal medium containing 2% (w/v) glucose, 0.67% (w/v) Difco yeast nitrogen base without amino acids and 20 μg/ml histidine. Cytochrome P450 content and substrate binding studies were carried out spectrally using a Philips PU8800 US/Vis scanning spectrophotometer according to Omura and Sato (1964) and Jefcoate (1979) respectively. Protein content was determined by the method of Lowry et al. 1956. Yeast microsomal fractions used in reduced carbon monoxide difference spectra, substrate binding studies and metabolism studies were prepared as described previously (Mehmood et al., 1995). This involved mechanical breakage of the yeast cells (harvested at 5×10^7 cells/ml) using a Braun MSK homogeniser and centrifugation to pellet cells and mitochondria prior to harvesting microsomes after 1 h, 100000 g. […] CO was bubbled into the sample cuvette and the difference spectrum was recorded between 390-500 nm. […] Nootkatone was added to the microsomal fractions in the sample cuvette but to the buffer in the reference cuvette and difference spectra recorded between 350-500 nm."}, "[5]": {"system": "cytochrome P450 or related enzyme system", "experiment": "Inhibition of the first enzyme catalysed oxidative step (conversion of valencene to nootkatone)", "assay_type": "cell-based, both eukaryotes and prokaryotes", "settings": "valencene oxidation; many organisms, eukaryotes and prokaryotes", "source_text": "In addition to plant produced nootkatone a number of enzyme systems produced by organisms other than higher plants have the capability of converting synthetic precursors of nootkatone to nootkatone itself. Thus, for example, a variety of microorganisms can oxidise valencene to nootkatone.\nWhilst investigating such transformations as effected by bacteria and fungi, it was deduced that the conversion was the result of two oxidative steps. The first was indicated to be carried out by an enzyme thought to be a cytochrome P450 or related enzyme system. The second appeared as an oxidoreductase transformation."}, "[6]": {"experiment": "Toxicity of nootkatone at concentrations in grapefruit juice", "settings": "at concentrations found in normal strength grapefruit juice (approximately 7 mg/200 ml)"}, "[7]": {"settings": "oral administration with water; cited from earlier work"}}}
{"smiles": "CCOC(=O)C1=C(C)NC(C)=C(C(=O)OC)C1c1cccc([N+](=O)[O-])c1", "note": "(racemic) [nitrendipine]", "values": [{"measurement": "gastrointestinal absorption", "setting": "[1]", "value": "almost complete"}, {"measurement": "systemic bioavailability", "setting": "[1]", "value": "5% to 30"}]}
{"smiles": "C=C(C)C1CCC2=CC(O)CC(C)C2(C)C1", "note": "(stereo not shown) [nootkatol]", "values": [{"measurement": "inhibitory effect compared with nootkatone", "setting": "cytochrome P450 3A4 [2]; similar experiments to nootkatone", "value": "less marked inhibitory effect"}]}
{"smiles": "CC(=O)N1CCN(c2ccc(OCC3COC(Cn4ccnc4)(c4ccc(Cl)cc4Cl)O3)cc2)CC1", "note": "(stereo not shown) [ketoconazole]", "values": [{"measurement": "inhibition of CYP3A4", "setting": "CYP3A4", "value": "known to inhibit CYP3A4"}]}
{"smiles": "C[C@@H]1O[C@@H](O[C@H]2[C@H](Oc3cc(O)c4c(c3)O[C@H](c3ccc(O)cc3)CC4=O)O[C@H](CO)[C@@H](O)[C@@H]2O)[C@H](O)[C@H](O)[C@H]1O", "note": "[naringin]", "values": [{"measurement": "interaction with felodipine compared with grapefruit juice", "setting": "[3]", "value": "less interaction"}]}
{"smiles": "C=C(C)[C@@H]1CCC2=CC(=O)C[C@@H](C)[C@]2(C)C1", "note": "[nootkatone]", "values": [{"measurement": "Kd", "setting": "cytochrome P450 3A4 [4]", "value": "80 to 100", "unit": "µM"}, {"measurement": "inhibition of the first enzyme catalysed oxidative step", "setting": "[5]", "value": "acts as an inhibitor of the first enzyme catalysed oxidative step"}, {"measurement": "toxicity", "setting": "[6]", "value": "does not appear to be toxic"}, {"measurement": "IC50", "setting": "cytochrome P450 3A4 [2]", "value": "< 140", "unit": "µM"}]}
{"smiles": "CCOC(=O)C1=C(C)NC(C)=C(C(=O)OC)C1c1cccc(Cl)c1Cl", "note": "(stereo not shown) [felodipine]", "values": [{"measurement": "average bioavailability", "setting": "[7]", "value": 15, "unit": "%"}]}
